Several values for one entry are separate records, joined by “and”; a condition that tells them apart may be missing. Equal entries are not always repeated.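 Test compounds were applied to cells in 96-well plates for 48 hours at 5 doses. The concentration for 50% growth inhibition is given as GI50. TGI denotes the concentration required for complete inhibition of growth.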
Legend:
Experiment in all cases: growth of human tumour cells (NCI), 48 h
[1] = system: SK-MEL-5 melanoma
[2] = system: T-47D breast
[3] = system: HCT-116 colon
[4] = system: A549 NSCLC
[5] = system: IGROV1 ovarian
[6] = system: RPMI-8226 leukemia
[7] = system: MALME-3M melanoma
[8] = system: SNB-19 CNS
[9] = system: CAKI-1 renal
[10] = system: K-562 leukemia

## Cc1cc(NC(=O)NCc2ccc(N3C(N)=NC(N)=NC3(C)C)cc2)ccc1S(=O)(=O)F
[1]
  GI50: 1.11 µM
  TGI: 58.7 µM
[2]
  GI50: 15.7 µM
  TGI: > 100 µM
[3]
  GI50: 0.429 µM
  TGI: > 100 µM
[4]
  GI50: 0.528 µM
  TGI: > 32.1 µM
[5]
  GI50: 0.388 µM
  TGI: > 100 µM
[6]
  GI50: 4.55 µM
  TGI: > 100 µM
[7]
  GI50: 29 µM
  TGI: 98.5 µM
[8]
  GI50: 11.7 µM
  TGI: > 100 µM
[9]
  GI50: > 49.3 µM
  TGI: > 100 µM
[10]
  GI50: 0.484 µM
  TGI: > 100 µM

## CC(C)=C[C@@H]1C[C@H](C)[C@H]2CC[C@H](C)c3c(O)c(OC4OC(C)C(O)C(O)C4O)c(C)c1c32 (stereo partly drawn)
[1]
  GI50: 12 µM
  TGI: 24.7 µM
[2]
  GI50: 12.5 µM
  TGI: 26.5 µM
[3]
  GI50: 10.9 µM
  TGI: 22.9 µM
[4]
  GI50: 11.9 µM
  TGI: 24.2 µM
[5]
  GI50: 13.7 µM
  TGI: 26.8 µM
[6]
  GI50: 12.5 µM
  TGI: 27.6 µM
[7]
  GI50: 12.9 µM
  TGI: 29.8 µM
[8]
  GI50: 15.7 µM
  TGI: 29.2 µM
[9]
  GI50: 14.5 µM
  TGI: 28.7 µM
[10]
  GI50: 3.97 µM
  TGI: 19.6 µM

## COc1ccc(-c2nsc3c2NC(=O)CC3c2ccsc2)cc1 (stereo not drawn)
[1]
  GI50: 0.0992 µM
  TGI: 2.76 µM
[2]
  GI50: 0.454 µM
  TGI: 65.6 µM
[3]
  GI50: 0.126 µM
  TGI: > 100 µM
[4]
  GI50: 0.211 µM
  TGI: > 100 µM
[5]
  GI50: 0.984 µM
  TGI: > 100 µM
[6]
  GI50: 0.279 µM
  TGI: 21 µM
[7]
  GI50: 0.135 µM
  TGI: 72.9 µM
[8]
  GI50: 1.05 µM
  TGI: > 100 µM
[9]
  GI50: 0.298 µM
  TGI: > 100 µM
[10]
  GI50: 0.0469 µM
  TGI: > 100 µM

## NNc1c(C(N)=O)c2c(N)ncnc2n1C1OC(CO)C(O)C1O (stereo not drawn)
[1]
  GI50: 0.0601 µM and 0.0828 µM
  TGI: 0.194 µM and 0.275 µM
[2]
  TGI: 0.104 µM and 0.14 µM
[3]
  GI50: < 0.01 µM
[4]
  GI50: 0.0336 µM and 0.0924 µM
  TGI: 12.7 µM and 3.44 µM
[5]
  GI50: 0.0276 µM and 0.0476 µM
  TGI: 1.12 µM and 3.54 µM
[6]
  GI50: 0.0404 µM and 0.0364 µM
  TGI: 0.221 µM and 0.143 µM
[7]
  GI50: 0.0205 µM and 0.0363 µM
  TGI: 0.084 µM and 0.171 µM
[8]
  GI50: 0.187 µM
  TGI: 8.54 µM and 18.2 µM
[9]
  GI50: 0.0171 µM and < 0.0167 µM
  TGI: 0.826 µM and 0.909 µM
[10]
  GI50: 0.0199 µM
  TGI: 16.3 µM and > 100 µM

## CC[C@H](C)[C@H](NC(=O)C12C3C4C1C1C2C3C41NC)C(=O)N(C)[C@H](C[C@@H](OC(C)=O)c1nc(C(=O)N[C@@H](Cc2ccccc2)C[C@H](C)C(=O)OC)cs1)C(C)C (stereo partly drawn)
[1]
  GI50: 0.159 µM
  TGI: 2.85 µM
[2]
  GI50: > 14.3 µM
  TGI: > 14.3 µM
[3]
  GI50: 0.346 µM
  TGI: > 14.3 µM
[4]
  GI50: 4.61 µM
  TGI: > 14.3 µM
[5]
  GI50: 0.88 µM
  TGI: > 14.3 µM
[6]
  GI50: 0.143 µM
  TGI: > 6.29 µM
[7]
  TGI: > 14.3 µM
[8]
  GI50: 0.701 µM
  TGI: > 14.3 µM
[9]
  GI50: 5.57 µM
  TGI: > 14.3 µM
[10]
  GI50: 0.219 µM
  TGI: > 14.3 µM

## Nc1ccc(CC[C@H]2CCC/C=C/[C@@H]3C[C@H](O)C[C@H]3[C@H](O)/C=C/C(=O)O2)cc1
[1]
  GI50: < 0.013 µM
  TGI: 0.0236 µM
[2]
  GI50: 0.0751 µM
  TGI: > 100 µM
[3]
  GI50: 0.0314 µM
  TGI: 0.114 µM
[4]
  GI50: 0.0437 µM
  TGI: > 100 µM
[5]
  GI50: 0.0367 µM
  TGI: 0.175 µM
[6]
  GI50: 0.0322 µM
  TGI: 0.121 µM
[7]
  GI50: 0.0731 µM
  TGI: 0.543 µM
[8]
  GI50: 0.0504 µM
  TGI: > 100 µM
[9]
  GI50: 0.0349 µM
  TGI: 1.47 µM
[10]
  GI50: 0.043 µM
  TGI: > 100 µM

## Cc1cc(N2CCC(N3CCCC3)CC2)nc(/N=C(\N)Nc2ccc(Cl)c(Cl)c2)n1
[1]
  GI50: 1.65 µM
  TGI: 3.02 µM
[2]
  GI50: 1.92 µM
  TGI: 3.59 µM
[3]
  GI50: 1.93 µM
  TGI: 3.63 µM
[4]
  GI50: 1.78 µM
  TGI: 3.42 µM
[5]
  GI50: 2.14 µM
  TGI: 5.11 µM
[6]
  GI50: 0.264 µM
  TGI: 0.926 µM
[7]
  GI50: 2 µM
  TGI: 3.82 µM
[8]
  GI50: 2.14 µM
  TGI: 5.63 µM
[9]
  GI50: 1.29 µM
  TGI: 2.68 µM
[10]
  GI50: 2.58 µM
  TGI: > 100 µM

## CCn1c(-c2nonc2N)nc2ccccc21
[1]
  GI50: > 25 µM
  TGI: > 25 µM
[2]
  GI50: > 25 µM
  TGI: > 25 µM
[3]
  GI50: > 25 µM
  TGI: > 25 µM
[4]
  GI50: > 25 µM
  TGI: > 25 µM
[5]
  GI50: > 25 µM
  TGI: > 25 µM
[6]
  GI50: > 25 µM
  TGI: > 25 µM
[7]
  GI50: > 25 µM
  TGI: > 25 µM
[8]
  GI50: > 25 µM
  TGI: > 25 µM
[9]
  GI50: > 25 µM
  TGI: > 25 µM
[10]
  GI50: > 25 µM
  TGI: > 25 µM

## CCCCCCCCCCCCCCCCCc1nc(Cl)nc(Cl)c1Cl
[1]
  TGI: 50.7 µM
[2]
  TGI: > 100 µM
[3]
  TGI: > 100 µM
[4]
  TGI: > 100 µM
[5]
  TGI: > 100 µM
[6]
  TGI: > 100 µM
[7]
  TGI: > 100 µM
[8]
  TGI: > 100 µM
[9]
  TGI: > 100 µM
[10]
  TGI: > 100 µM

## O=[N+]([O-])c1ccccc1N=Nc1c(O)[nH]c2c(Cl)cccc12
[1]
  TGI: > 46.5 µM
[2]
  TGI: > 75 µM
[3]
  TGI: > 66.6 µM
[4]
  TGI: > 58.6 µM
[5]
  TGI: > 47.8 µM
[6]
  TGI: 96.2 µM
[7]
  TGI: > 35.2 µM
[8]
  TGI: > 79.3 µM
[9]
  TGI: 26.3 µM
[10]
  TGI: > 100 µM

## Cn1cc(-c2cc(-c3cn(C)c4ccccc34)[nH]n2)c2ccccc21
[1]
  GI50: 13.1 µM
  TGI: > 100 µM
[2]
  GI50: 79.7 µM
  TGI: > 100 µM
[3]
  GI50: 19 µM
  TGI: > 100 µM
[4]
  GI50: 16.3 µM
  TGI: > 100 µM
[5]
  GI50: 8.9 µM
  TGI: 74.1 µM
[6]
  GI50: 37.8 µM
  TGI: > 100 µM
[7]
  GI50: 93.1 µM
  TGI: > 100 µM
[8]
  GI50: 27 µM
  TGI: > 100 µM
[9]
  GI50: > 100 µM
  TGI: > 100 µM
[10]
  GI50: 42.1 µM
  TGI: > 100 µM

## CC(=O)c1cc2c(N)c(C(=O)Nc3cccc4ccccc34)sc2nc1C
[1]
  GI50: 1.09 µM
  TGI: > 50 µM
[2]
  GI50: 1.6 µM
  TGI: > 50 µM
[3]
  GI50: 2.23 µM
  TGI: > 50 µM
[4]
  GI50: 0.977 µM
  TGI: > 50 µM
[5]
  GI50: 2.92 µM
  TGI: > 50 µM
[6]
  GI50: 1.76 µM
  TGI: > 50 µM
[7]
  GI50: 6.92 µM
  TGI: > 50 µM
[8]
  GI50: 1.78 µM
  TGI: > 50 µM
[10]
  GI50: 1.23 µM
  TGI: > 50 µM

## Nc1nc(SCc2ccccc2CCl)c2[nH]cnc2n1
[1]
  GI50: 10.8 µM
  TGI: 23.7 µM
[2]
  GI50: 15.6 µM
  TGI: 52.3 µM
[3]
  GI50: 16.2 µM
  TGI: 33.8 µM
[5]
  GI50: 14.5 µM
  TGI: 47.9 µM
[6]
  GI50: 31.9 µM
  TGI: > 100 µM
[7]
  GI50: 12.5 µM
  TGI: 28.8 µM
[8]
  GI50: 15.8 µM
  TGI: 35.5 µM
[9]
  GI50: 15.6 µM
  TGI: 44 µM
[10]
  GI50: 32.4 µM
  TGI: > 100 µM

— PubChem BioAssay (NCI)
